Patent US20060116343A1, “Sphingosine kinase-1 mediates gene expression regulation of a monocyte chemoattractant protein-1 gene” (priority 2004, published 2006)

How the values were obtained:
Assay type in all cases: cell-based, human
[1] = system: MCP-1 gene expression in HMVECs; assay: cDNA microarray analysis of gene expression in stimulated HMVECs; conditions: four hours; for MCP-1 gene expression in response to stimulus (microarray): thrombin 100 nM or TNF-α 20 ng/ml
Description: In an effort to rapidly assess the potential overall role of SK1 in endothelial cell function, a cDNA microarray analyses was performed in HMVEC in the absence and presence of the SK1 inhibitor DMS. The cells were stimulated through two receptor subtypes: G-protein coupled receptors, for which the Protease Activate Receptor (PAR) family was utilized with thrombin as the agonist and cytokine receptors with TNF-α as the agonist
Cell Culture—Adult human microvascular endothelial cells (HMVECs) (Cambrex) were cultured in EGM complete media (Cambrex). Cells were used between the third and sixth passages for all studies.
Microarray Study—Adult human microvascular endothelial cells (HMVECs) (Cambrex) were placed into culture (5% FBS) and stimulated with thrombin (100 nM) or TNF-α (20 ng/ml) in the absence or presence of DMS (10 μM), a potent inhibitor of sphingosine kinase. After four hours of stimulation, RNA was isolated (Tri-Reagent, Bio-Mol), DNAse treated and cleaned using the RNeasy maxi kit (Qiagen). Upon validation of RNA purity using the Agilent 2100 Bioanalyzer, RNA was then subjected to cDNA microarray analyses.
A cDNA microarray containing 3563 cDNA clones was used in this study. In the gene expression studies two types of replications were used, biological and technical. Duplicate biological samples were harvested for each experimental condition for the initial microarray analyses. Additionally technical replication was employed as all samples were run in triplicate on separate microarrays. The microarray data from each sample were subjected to outlier removal based on technical replication and normalization based on both the technical and biological replication. The normalization consisted of an initial normalization between hybridization replicates within a single sample, followed by a secondary normalization across all samples within the study (Shaw et al., J Mol Microbiol Biotechnol, 2003, 5:105-122). […] After cleanup and subsequent normalizations, a single ratio was calculated for each treatment to its assigned control. […]

[2] = system: MCP-1 protein secretion from HMVECs; assay: MCP-1 ELISA of HMVEC supernatant; conditions: 24 hours; for effect of inhibitor pretreatment on induced MCP-1 protein secretion: DMS 10 μM, Bay11-7092 10 μM, GF109203x 1 μM, PD98059 10 μM, stimulation with Thrombin 100 nM, PAR-1-AP 100 nM or (Thrombin 0.1 ng/ml); for MCP-1 protein secretion in response to stimulus (ELISA): thrombin 100 nM or varying concentrations of PAR-activating peptides
Description: HMVECs were placed into culture and stimulated with Thrombin (100 nM) or varying concentrations of PAR-activating peptides. 24 hours later, we used ELISA to detect secretion of MCP-1 into supernatant.
MCP-1 ELISA—HMVECs were placed into culture in 96-well dishes (2×10^3 cells/well) and grown for 24 hours in complete growth media. Cells were transfected with control non-silencing siRNA or siRNAs for hSK1 or hSK2 in serum-free Opti-MEM (Gibco) for 4 hours. Cells were then allowed to grow for 24 hours in media containing 10% FBS, after which the cells were serum starved in 0.5% FBS media overnight. Cells were subsequently stimulated with fresh 0.5% FBS containing media and incubated under various experimental conditions for an additional 24 hours. Where indicated, cells were pre-incubated with specific compound inhibitors, for 20 minutes, prior to stimulation. Supernatants were collected and analyzed by ELISA (Cell Sciences).
HMVECs were transfected with siRNAs (1.6 μg), hSK1-specific, hSK2-specific or control non-silencing siRNAs. After 48 hours, cells were stimulated with Thrombin (100 nM), PAR-1-AP (300 μM) or PAR-4-AP (600 μM). ELISA was performed to detect MCP-1 secretion into cell supernatant. […] Furthermore, basal levels of MCP-1 protein secretion appeared to be effected as well, as the level of MCP-1 protein secretion in cells that were unstimulated or stimulated with PAR-4-AP was decreased from cells transfected with hSK1 specific siRNA.
HMVECs were placed into culture overnight, and pretreated with inhibitors to hSK (DMS 10 μM), NF-κB (Bay11-7092 10 μM), PKC (GF109203x 1 μM), or Erk (PD98059 10 μM) prior to stimulation with Thrombin (100 nM), PAR-1-AP (TFLLRN 100 nM), or (Thrombin 0.1 ng/ml). ELISAs were performed 24 hours after stimulation to measure the amount of MCP-1 secretion. […] Furthermore we observed that NF-κB activity is a prerequisite for MCP-1 expression as well, as pretreatment with the NF-κB inhibitor, Bay11-7092, abrogated the induction of MCP-1 protein secretion by all agonists.
HMVECs were placed into culture overnight, and pretreated with inhibitors to hSK (DMS 10 μM), NF-κB (Bay11-7092 10 μM), PKC (GF109203×1 μM), or Erk (PD98059 10 μM) prior to stimulation with 5 μM S1P. ELISAs were performed to detect the levels of secreted MCP-1 protein. […] There was no elevation of MCP-1 protein by the external addition of S1P. Therefore, we rule out a role for S1P receptors in the hSK-dependent release of MCP-1 from HMVECs.

[3] = system: MCP-1 transcripts in HMVECs; assay: Quantitative RT-PCR of MCP-1 transcripts in stimulated HMVECs; conditions: thrombin 100 nM
Excerpt: In the presence of hSK1-specific siRNAs, induction of MCP-1 was inhibited whereas in the presence of hSK2-specific or control non-silencing siRNAs, MCP-1 induction was not affected.
Evaluation of siRNA Transfection Efficiency and Silencing Capabilities—Small interfering RNAs (siRNAs) were designed and synthesized to target either sequences for hSK1, SEQ ID NO: 1 ([…]) or hSK2, SEQ ID NO:2 ([…]) transcripts as well as control non-silencing siRNA, SEQ ID NO:3 ([…]), which has no sequence target in the human genome (Qiagen). The oligonucleotides were fluorescein-conjugated on the 3′ end of the sense strand, which facilitated visualization of transfection efficiency by fluorescence confocal microscopy (LSM 510, Zeiss). […] For experimental studies RNA were isolated, DNAse treated and subjected to quantitative RT-PCR analyses to detect transcript levels of hSK1, hSK2, MCP-1 and control 18S transcripts using predesigned primers from Applied Biosystems. […]
Quantitative RT-PCR—HMVECs were placed into culture overnight and stimulated with thrombin (100 nM) after which RNA was isolated and DNAse treated. TaqMan® quantitative RT-PCRs were performed in triplicate as validation of microarray analyses according to manufacturers instructions (Applied Biosystems). The quantity mean for each detector was normalized to that of the 18S detector.

CCCCCCCCCCCCC/C=C/[C@@H](O)[C@H](CO)N(C)C [DMS, dimethylsphingosine]
effect on thrombin- and TNF-α-induced MCP-1 gene expression (microarray) ([1]; DMS 10 μM added prior to stimulation with thrombin 100 nM or TNF-α 20 ng/ml): inhibited | effect on thrombin- or PAR-1 agonist peptide-stimulated secretion of MCP-1 protein ([2]; HMVECs pretreated with DMS prior to stimulation): inhibited secretion of MCP-1 protein | effect of inhibitor pretreatment on induced MCP-1 protein secretion ([2]; HMVECs): hSK activity is required

CN(C)CCCn1cc(C2=C(c3c[nH]c4ccccc34)C(=O)NC2=O)c2ccccc21 [GF109203x]
effect of inhibitor pretreatment on induced MCP-1 protein secretion ([2]; HMVECs): intermediate effect

COc1cccc(-c2cc(=O)c3ccccc3o2)c1N [PD98059]
effect of inhibitor pretreatment on induced MCP-1 protein secretion ([2]; HMVECs): no effect

CCCCCCCCCCCCC/C=C/[C@@H](O)[C@@H](N)COP(=O)(O)O [S1P, Sphingosine-1-phosphate]
MCP-1 protein secretion after external addition of S1P ([2]; HMVECs, 5 μM S1P): no elevation

TFLLRN [PAR-1-AP]
MCP-1 protein secretion in response to stimulus (ELISA) ([2]; HMVECs): stimulated secretion of MCP-1

TNF-α
MCP-1 gene expression in response to stimulus (microarray) [1]: induced

thrombin
MCP-1 gene expression in response to stimulus (microarray) [1]: induced | MCP-1 transcripts in response to stimulus (quantitative RT-PCR) [3]: induction of MCP-1 transcripts | MCP-1 protein secretion in response to stimulus (ELISA) ([2]; HMVECs): augmented
